The source of these data is ChEMBL document CHEMBL1150689, “New dihydroalkylhexenones from Lannea edulis” (J Nat Prod, 2003).

Activity calls are given as the source filed them. No cut-off for these calls is given here.

This assay in a line: DPPH radical scavenging activity at 10 ug after 30 mins by TLC. The assay is classed as functional. On the technique in general: The DPPH test is a chemical assay of radical scavenging.
In the case of `CC/C=C/CCCCCCCCCCCCCCC[C@@]1(O)CC(=O)C=C[C@@H]1O`, the result was inactive.

Consider `CC/C=C/CCCCCCCCCCCCCc1cccc(O)c1`, for which the result was Active.

Take `CC/C=C/CCCCCCCCCCCCCCC[C@]1(O)CC(=O)C=C[C@@H]1O`: the outcome was inactive.

As for `CC/C=C/CCCCCCCCCCCCC[C@@]1(O)CC(=O)C=C[C@@H]1O`, the outcome was inactive.
